Data published in patent publication US9527832B2, “Substituted condensed pyrimidine compounds” (GRÜNENTHAL GMBH, priority 2013, dated 2016).

Target: T1, human PDE4B1 (Homo sapiens, UniProt Q07343)
T1 construct: host or cells: Sf9 cells
Experiment: cAMP HTRF assay to determine the activity of hPDE4B1
Type: biochemical
Conditions: for inhibition at 1 µM / Inhibition at 1 μM test concentration [%]: Percentage inhibition of PDE4B at 1 μM test concentration; for IC50: dose response measurements with eight concentrations, reported as ranges, read-out: IC50
Method: cAMP HTRF® Assay to Determine the Activity of hPDE4B1
The inhibiting effect of the compounds on the enzyme activity of human PDE4B1 was measured by the quantification of 5′-adenosine monophosphate (5′-AMP), which is formed from 3′,5′-cyclic adenosine monophosphate (cAMP). Human recombinant enzyme, expressed in Sf9 cells, and the HTRF (homogeneous time-resolved fluorescence) detection method were used in the assay.
The test compound or water (control) was mixed with the human recombinant PDE4B1 enzyme (4.8 U) in a buffer consisting of 44.4 mM tris-HCl, 5.28 mM MgCl2, 2.64 mM DTT and 0.044% Tween 20 (pH 7.8). After adding the cAMP enzyme substrate (final concentration 40 nM), the mixture was incubated for 30 minutes at room temperature. Then a fluorescence acceptor (Dye2 marked with cAMP), a fluorescence donor (anti-cAMP antibody marked with a europium cryptate) and the non-specific phosphodiesterase inhibitor IBMX (3-isobutyl-1-methylxanthine; final concentration 1 mM) were added. After 60 minutes the fluorescence transfer, which correlates with the amount of remaining cAMP, was measured with a microplate reader (Rubystar, BMG) at λex=337 nm, λem=620 nm and λem=665 nm. The enzyme activity was calculated from the quotient formed from the measured signal at 665 nm and that at 620 nm. The result was expressed as the percentage inhibition of enzyme activity of the control (without PDE4 inhibitor). The enzyme was omitted for measurement of the basal control.
IC50 values (IC50=concentration causing a half-maximal inhibition of control specific activity) were derived from dose response measurements with eight different concentrations (n=2; N=1-2).
Literature: N. Saldou et al., Comparison of recombinant human PDE4 isoforms: interaction with substrate and inhibitors, Cell. Signal. Vol. 10, No. 6, 427-440, 1998

T1 sequence (Q07343 whole entry): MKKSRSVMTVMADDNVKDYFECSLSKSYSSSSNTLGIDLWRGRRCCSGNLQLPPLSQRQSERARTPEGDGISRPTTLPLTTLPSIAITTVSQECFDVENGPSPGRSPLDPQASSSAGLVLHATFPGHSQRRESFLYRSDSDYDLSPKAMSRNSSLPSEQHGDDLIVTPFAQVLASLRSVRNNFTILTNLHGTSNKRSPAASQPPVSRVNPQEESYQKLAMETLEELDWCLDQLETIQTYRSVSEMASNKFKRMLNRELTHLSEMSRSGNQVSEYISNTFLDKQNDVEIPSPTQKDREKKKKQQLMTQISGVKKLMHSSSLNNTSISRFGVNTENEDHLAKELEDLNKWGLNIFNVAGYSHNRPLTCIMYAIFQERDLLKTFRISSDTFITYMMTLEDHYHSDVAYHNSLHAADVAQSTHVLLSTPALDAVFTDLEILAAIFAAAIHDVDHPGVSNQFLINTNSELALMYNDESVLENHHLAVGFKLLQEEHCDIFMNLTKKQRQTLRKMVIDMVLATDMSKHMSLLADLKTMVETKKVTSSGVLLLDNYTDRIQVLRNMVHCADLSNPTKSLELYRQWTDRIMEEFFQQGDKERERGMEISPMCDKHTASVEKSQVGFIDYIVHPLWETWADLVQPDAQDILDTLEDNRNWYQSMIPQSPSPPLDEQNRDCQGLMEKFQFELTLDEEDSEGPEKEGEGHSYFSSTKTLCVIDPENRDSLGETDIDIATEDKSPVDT

Work on `CN(C)C(=O)COc1ccc2c(c1)N(c1nc(-c3ccc4c(c3)CCO4)nc3c1C[S+]([O-])C3)CC2` (stereo not shown) [2-153, 2-[[1-[2-(2,3-Dihydro-benzofuran-5-yl)-6-oxo-5,7-dihydro-thieno[3,4-d]pyrimidin-4-yl]-2,3-dihydro-1H-indol-6-yl]oxy]-N,N-dimethyl-acetamide] yielded an inhibition at 1 µM of 97% and an IC50 of less than 100 nM.
`CN(C)C(=O)COc1ccc2c(c1)N(c1nc(-c3ccc4occc4c3)nc3c1C[S+]([O-])C3)CC2` (stereo not shown) [2-154, 2-[[1-[2-(Benzofuran-5-yl)-6-oxo-5,7-dihydro-thieno[3,4-d]pyrimidin-4-yl]-2,3-dihydro-1H-indol-6-yl]oxy]-N,N-dimethyl-acetamide] showed an inhibition at 1 µM of 104% and an IC50 of less than 100 nM.
`CN(C)C(=O)COc1ccc2c(c1)N(c1nc(-c3ccc4sccc4c3)nc3c1C[S+]([O-])C3)CC2` (stereo not shown) [2-155, 2-[[1-[2-(Benzo[b]thiophen-5-yl)-6-oxo-5,7-dihydro-thieno[3,4-d]pyrimidin-4-yl]-2,3-dihydro-1H-indol-6-yl]oxy]-N,N-dimethyl-acetamide] showed an inhibition at 1 µM of 102% and an IC50 of less than 100 nM.
`COc1ccc(-c2nc3c(c(N4CCc5cc(CC(=O)O)ccc54)n2)CCC3)cc1F` [Compound No. 1-1, 2-(1-(2-(3-Fluoro-4-methoxyphenyl)-6,7-dihydro-5H-cyclopenta[d]-pyrimidin-4-yl)indolin-5-yl)acetic acid] gave an inhibition at 1 µM of 102% and an IC50 of less than 100 nM.
`COc1ccc(-c2nc3c(c(N4CCc5cc(CC(=O)O)ccc54)n2)CCC3)cc1Cl` [Compound No. 1-2, 2-(1-(2-(3-Chloro-4-methoxyphenyl)-6,7-dihydro-5H-cyclopenta[d]-pyrimidin-4-yl)indolin-5-yl)acetic acid] gave an inhibition at 1 µM of 91% and an IC50 of less than 100 nM.
For `COc1ccc(-c2nc3c(c(N4CCc5cc(CC(=O)O)ccc54)n2)CCC3)cc1` [Compound No. 1-3, 2-(1-(2-(4-Methoxyphenyl)-6,7-dihydro-5H-cyclopenta[d]pyrimidin-4-yl)indolin-5-yl)acetic acid], the inhibition at 1 µM was 83% and the IC50 was less than 100 nM.
`COc1ccc(-c2nc3c(c(N4CCc5cc(CC(=O)O)ccc54)n2)CSC3)cc1Cl` [Compound No. 1-5, 2-(1-(2-(3-Chloro-4-methoxyphenyl)-5,7-dihydrothieno[3,4-d]pyrimidin-4-yl)indolin-5-yl)acetic acid] showed an inhibition at 1 µM of 98% and an IC50 of less than 100 nM.
`COc1ccc(-c2nc3c(c(N4CCc5cc(CC(=O)O)ccc54)n2)C[S+]([O-])C3)cc1Cl` (stereo not shown) [Compound No. 1-8, 2-(1-(2-(3-Chloro-4-methoxyphenyl)-6-oxido-5,7-dihydrothieno[3,4-d]pyrimidin-4-yl)indolin-5-yl)acetic acid] showed an inhibition at 1 µM of 102% and an IC50 of less than 100 nM.
`O=C(O)Cc1ccc2c(c1)CCN2c1nc(-c2ccc(Cl)s2)nc2c1CCC2` [Compound No. 1-13, 2-(1-(2-(5-Chlorothiophen-2-yl)-6,7-dihydro-5H-cyclopenta[d]-pyrimidin-4-yl)indolin-5-yl)acetic acid] showed an inhibition at 1 µM of 78% and an IC50 of less than 100 nM.
`O=C(O)Cc1ccc2c(c1)CCN2c1nc(-c2ccc(F)s2)nc2c1CCC2` [Compound No. 1-15, 2-(1-(2-(5-Fluorothiophen-2-yl)-6,7-dihydro-5H-cyclopenta[d]pyrimidin-4-yl)indolin-5-yl)acetic acid] gave an inhibition at 1 µM of 100% and an IC50 of less than 100 nM.
With `N#Cc1ccc(-c2nc3c(c(N4CCc5cc(CC(=O)O)ccc54)n2)CCC3)s1` [Compound No. 1-16, 2-(1-(2-(5-Cyanothiophen-2-yl)-6,7-dihydro-5H-cyclopenta[d]pyrimidin-4-yl)indolin-5-yl)acetic acid] the inhibition at 1 µM was 95% and the IC50 was less than 100 nM.
`O=C(O)Cc1ccc2c(c1)CCN2c1nc(-c2cncs2)nc2c1CCC2` [Compound No. 1-17, 2-(1-(2-(Thiazol-5-yl)-6,7-dihydro-5H-cyclopenta[d]pyrimidin-4-yl)indolin-5-yl)acetic acid] gave an inhibition at 1 µM of 83% and an IC50 of 100 to 1000 nM.
`O=C(O)Cc1ccc2c(c1)CCN2c1nc(-c2cc(Cl)cs2)nc2c1CCC2` [Compound No. 1-18, 2-(1-(2-(4-Chlorothiophen-2-yl)-6,7-dihydro-5H-cyclopenta[d]pyrimidin-4-yl)indolin-5-yl)acetic acid] gave an inhibition at 1 µM of 92% and an IC50 of less than 100 nM.
`O=C(O)Cc1ccc2c(c1)CCN2c1nc(-c2csc(Cl)c2)nc2c1CCC2` [Compound No. 1-19, 2-(1-(2-(5-Chlorothiophen-3-yl)-6,7-dihydro-5H-cyclopenta[d]pyrimidin-4-yl)indolin-5-yl)acetic acid] showed an inhibition at 1 µM of 85% and an IC50 of less than 100 nM.
Work on `O=C(O)Cc1ccc2c(c1)CCN2c1nc(-c2ccc(Cl)s2)nc2c1CSC2` [Compound No. 1-20, 2-(1-(2-(5-Chlorothiophen-2-yl)-5,7-dihydrothieno[3,4-d]pyrimidin-4-yl)indolin-5-yl)acetic acid] yielded an inhibition at 1 µM of 92% and an IC50 of less than 100 nM.
With `O=C(O)Cc1ccc2c(c1)CCN2c1nc(-c2ccc(Cl)s2)nc2c1C[S+]([O-])C2` (stereo not shown) [Compound No. 1-21, 2-(1-(2-(5-Chlor-thiophen-2-yl)-6-oxo-5,7-dihydro-thieno[3,4-d]pyrimidin-4-yl)-2,3-dihydro-1H-indol-5-yl)acetic acid] the “Inhibition at 1 μM test concentration [%]” value was 88%.
In the case of `O=C(O)Cc1ccc2c(c1)CCN2c1nc(-c2ccc(Cl)s2)nc2c1CS(=O)(=O)C2` [Compound No. 1-22, 2-(1-(2-(5-Chlor-thiophen-2-yl)-6,6-dioxo-5,7-dihydro-thieno[3,4-d]pyrimidin-4-yl)-2,3-dihydro-1H-indol-5-yl)acetic acid], the “Inhibition at 1 μM test concentration [%]” value is reported as 115%.
`O=C(O)Cc1ccc2c(c1)CCN2c1nc(-c2ccc(F)s2)nc2c1CSC2` [Compound No. 1-23, 2-(1-(2-(5-Fluorothiophen-2-yl)-5,7-dihydrothieno[3,4-d]pyrimidin-4-yl)indolin-5-yl)acetic acid] was tested, and the inhibition at 1 µM was 93% and the IC50 was less than 100 nM.
`O=C(O)Cc1ccc2c(c1)CCN2c1nc(-c2ccc(F)s2)nc2c1C[S+]([O-])C2` (stereo not shown) [Compound No. 1-24, 2-(1-(2-(5-Fluorothiophen-2-yl)-6-oxido-5,7-dihydrothieno[3,4-d]pyrimidin-4-yl)indolin-5-yl)acetic acid] was tested, and the inhibition at 1 µM was 111% and the IC50 was less than 100 nM.
`O=C(O)Cc1ccc2c(c1)CCN2c1nc(-c2ccc(F)s2)nc2c1CS(=O)(=O)C2` [Compound No. 1-25, 2-(1-(2-(5-Fluoro-thiophen-2-yl)-6,6-dioxo-5,7-dihydro-thieno[3,4-d]pyrimidin-4-yl)-2,3-dihydro-1H-indol-5-yl)acetic acid] was tested, and the inhibition at 1 µM was 103% and the IC50 was less than 100 nM.
With `COc1ccc(-c2nc3c(c(N4CCc5cc(CC(=O)O)ccc54)n2)CCCC3)cc1Cl` [Compound No. 1-39, 2-(1-(2-(3-Chloro-4-methoxyphenyl)-5,6,7,8-tetrahydroqiuinazolin-4-yl)indolin-5-yl)acetic acid] the inhibition at 1 µM was 63% and the IC50 was 100 to 1000 nM.
For `O=C(O)Cc1ccc2c(c1)CCN2c1nc(-c2ccc(Cl)s2)nc2c1CCCC2` [Compound No. 1-50, 2-(1-(2-(5-Chlorothiophen-2-yl)-5,6,7,8-tetrahydroquinazolin-4-yl)indolin-5-yl)acetic acid], the inhibition at 1 µM was 76% and the IC50 was 100 to 1000 nM.
For `COc1ccc(-c2nc3c(c(-n4ncc5cc(CC(=O)O)ccc54)n2)CCC3)cc1Cl` [Compound No. 1-59, 2-(1-(2-(3-Chloro-4-methoxyphenyl)-6,7-dihydro-5H-cyclopenta[d]-pyrimidin-4-yl)-1H-indazol-5-yl)acetic acid], the inhibition at 1 µM was 38%.
In the case of `COc1ccc(-c2nc3c(c(-n4ncc5cc(CC(=O)O)ccc54)n2)CCC3)cc1F` [Compound No. 1-60, 2-(1-(2-(3-Fluoro-4-methoxyphenyl)-6,7-dihydro-5H-cyclopenta[d]-pyrimidin-4-yl)-1H-indazol-5-yl)acetic acid], the inhibition at 1 µM is reported as 67% and the IC50 is reported as 100 to 1000 nM.
`O=C(O)Cc1ccc2c(cnn2-c2nc(-c3ccc(Cl)s3)nc3c2CCC3)c1` [Compound No. 1-61, 2-(1-(2-(5-Chlorothiophen-2-yl)-6,7-dihydro-5H-cyclopenta[d]-pyrimidin-4-yl)-1H-indazol-5-yl)acetic acid] was tested, and the inhibition at 1 µM was 82% and the IC50 was 100 to 1000 nM.
Compound `O=C(O)Cc1ccc2c(c1)CC(=O)N2c1nc(-c2ccc(Cl)s2)nc2c1CCC2` [Compound No. 1-64, 2-(1-(2-(5-Chlorothiophen-2-yl)-6,7-dihydro-5H-cyclopenta[d]-pyrimidin-4-yl)-2-oxoindolin-5-yl)acetic acid] has an inhibition at 1 µM of 28%.
For `O=C(O)Cc1ccc2c(c1)CC(=O)N2c1nc(-c2ccc(F)s2)nc2c1CCC2` [Compound No. 1-65, 2-(1-(2-(5-Fluorothiophen-2-yl)-6,7-dihydro-5H-cyclopenta[d]-pyrimidin-4-yl)-2-oxoindolin-5-yl)acetic acid], the inhibition at 1 µM was 34%.
